Assay results published in patent US7504517B2, “Kv1.5 potassium channel inhibitors” (Wyeth, priority 2006, dated 2009).

Columns and labels:
Kv1.5 = biological target: T1, Kv1.5 (Homo sapiens, UniProt P22460); experiment: Kv1.5 Patch Clamp EP; assay type: cell-based; conditions: whole cell patch clamp; for IC50: HEK or LTK- cells, at least four concentrations, n=3
T1 construct: expressed in transfected cells; host or cells: HEK or LTK- cells
Experimental: The external solution is standard Tyrodes solution. […] Inhibition was measured at the end of the 1 second pulses and expressed relative to controls. Initial Kv1.5 inhibition is estimated by single point determinations done at 1 μM.

L-type calcium channels = experiment: FLIPR L-Type Calcium Channel Assay; assay type: cell-based, murine; conditions: HL-1 cells expressing endogenous L-type calcium channels; calcium influx after 20 mM KCl; read-out: L-type Ca^2+ IC50
Method in brief: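 After a 15 min compound pre-incubation at 37 °C with 2.5 mM probenecid, L-type channels were opened by depolarising with 20 mM KCl (final). Fluorescence (488 nm excitation, 510–570 nm emission) was read for 5 min.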

HERG [1] = biological target: T2, HERG (Homo sapiens, UniProt Q12809)
Experimental: (§1) HERG currents are recorded by the whole cell mode of patch clamp electrophysiology as described by Hamill et al.^3 HERG is stably over expressed in HEK cells. Microelectrodes are pulled from borosilicate glass (TW150) and heat polished (tip resistance, 1.5 to 3 megaohms). The external solution is standard Tyrodes solution. The internal (microelectrode) solution contained: 110 mM KCl, 5 mM K2ATP, 5 mM K4BAPTA, 1 mM MgCl2 and 10 mM HEPES, adjusted to pH 7.2 with KOH. […] Compounds are prepared as 10-20 mM DMSO stocks and diluted to appropriate test concentrations. […] Inhibition of HERG is measured at the peak of the tail currents and expressed relative to controls. Initial HERG activity is estimated by single point determinations run at 10 μM. Concentration response curves are generated for appropriate compounds utilizing at least four concentrations and an n=3. Curve fitting and IC50 estimating are done using Graphpad software (Ver. 4). • 1.

HERG [2] = biological target: T2, HERG; experiment: HERG Patch Clamp EP; conditions: for inhibition at 10 µM: human, HEK cells stably overexpressing HERG
Experimental: as §1

[3] = 1.0 μM, single point, Kv1.5 stably over expressed in HEK or LTK- cells

T1 sequence (P22460 whole entry): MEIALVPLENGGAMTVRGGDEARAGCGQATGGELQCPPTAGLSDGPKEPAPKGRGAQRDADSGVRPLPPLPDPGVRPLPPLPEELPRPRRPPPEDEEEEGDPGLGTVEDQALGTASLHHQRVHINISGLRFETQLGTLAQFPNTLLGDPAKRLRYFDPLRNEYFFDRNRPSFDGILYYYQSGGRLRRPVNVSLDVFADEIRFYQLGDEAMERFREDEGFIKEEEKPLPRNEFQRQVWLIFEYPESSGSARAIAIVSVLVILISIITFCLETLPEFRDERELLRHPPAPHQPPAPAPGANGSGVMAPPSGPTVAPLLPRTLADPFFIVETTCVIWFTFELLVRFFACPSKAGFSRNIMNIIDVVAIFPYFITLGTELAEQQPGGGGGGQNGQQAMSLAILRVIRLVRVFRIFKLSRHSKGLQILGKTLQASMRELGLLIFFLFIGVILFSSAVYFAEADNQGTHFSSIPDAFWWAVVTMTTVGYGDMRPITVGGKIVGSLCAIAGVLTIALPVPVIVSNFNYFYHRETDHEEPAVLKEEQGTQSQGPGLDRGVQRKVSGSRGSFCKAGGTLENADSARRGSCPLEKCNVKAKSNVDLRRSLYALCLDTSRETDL
T2 sequence (Q12809 whole entry): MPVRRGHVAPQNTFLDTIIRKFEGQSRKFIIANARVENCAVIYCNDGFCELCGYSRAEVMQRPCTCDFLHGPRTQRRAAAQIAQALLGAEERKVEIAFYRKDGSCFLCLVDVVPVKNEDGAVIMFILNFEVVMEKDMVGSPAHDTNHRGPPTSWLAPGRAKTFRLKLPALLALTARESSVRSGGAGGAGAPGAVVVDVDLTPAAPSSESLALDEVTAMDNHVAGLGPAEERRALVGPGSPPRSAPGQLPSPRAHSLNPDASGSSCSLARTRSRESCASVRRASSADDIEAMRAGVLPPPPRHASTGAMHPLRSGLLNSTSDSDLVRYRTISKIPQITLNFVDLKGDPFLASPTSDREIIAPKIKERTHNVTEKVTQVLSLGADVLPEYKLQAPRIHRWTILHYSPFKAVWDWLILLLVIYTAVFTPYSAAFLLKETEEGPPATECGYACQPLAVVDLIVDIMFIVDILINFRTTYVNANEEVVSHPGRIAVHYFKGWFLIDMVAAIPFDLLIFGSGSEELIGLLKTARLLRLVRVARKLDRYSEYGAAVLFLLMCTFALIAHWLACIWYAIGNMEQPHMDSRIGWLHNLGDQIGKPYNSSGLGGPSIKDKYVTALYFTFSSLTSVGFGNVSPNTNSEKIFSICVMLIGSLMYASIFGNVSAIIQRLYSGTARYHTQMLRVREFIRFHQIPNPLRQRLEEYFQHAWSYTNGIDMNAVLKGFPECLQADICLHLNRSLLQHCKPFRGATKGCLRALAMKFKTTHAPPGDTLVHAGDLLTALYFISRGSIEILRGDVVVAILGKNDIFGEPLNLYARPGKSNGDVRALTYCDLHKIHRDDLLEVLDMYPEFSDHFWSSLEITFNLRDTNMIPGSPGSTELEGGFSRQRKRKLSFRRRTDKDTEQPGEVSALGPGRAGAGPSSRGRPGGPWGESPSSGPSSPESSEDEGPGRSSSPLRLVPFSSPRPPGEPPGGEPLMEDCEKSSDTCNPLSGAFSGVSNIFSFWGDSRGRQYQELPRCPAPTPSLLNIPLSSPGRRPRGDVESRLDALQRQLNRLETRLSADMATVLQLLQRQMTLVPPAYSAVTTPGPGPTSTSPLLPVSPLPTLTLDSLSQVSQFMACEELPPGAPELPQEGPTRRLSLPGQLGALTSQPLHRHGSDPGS

Row | Molecule | Kv1.5% inhibition @ 1.0 μM (Kv1.5; [3]) | IC50 (L-type calcium channels) | inhibition at 1 µM (Kv1.5; [3]) | IC50 (Kv1.5) | HERG % Inhib. @ 10 μM (HERG [1]) | inhibition at 10 µM (HERG [2]) | IC50 (HERG [2])
1 | 1-(Methoxycarbonylamino)-3-[2-(4-methoxyphenyl)ethyl]-4-[4-(tert-butyl)phenyl]-2-imidazolidinone [Compound 80] | 77% | 20 µM | – | – | 51% | – | –
2 | COc1ccc(CCN2C(=O)N(N(CCn3ccnc3)C(=O)OC(C)(C)C)CC2c2ccc(C(C)(C)C)cc2)cc1 (stereo not shown) [Compound 146, tert-butyl {4-(4-tert-butylphenyl)-3-[2-(4-methoxyphenyl)ethyl]-2-oxoimidazolidin-1-yl}[2-(1H-imidazol-1-yl)ethyl]carbamate] | – | 15 µM | 83% | – | – | 86% | –
3 | COc1ccc(CCN2C(=O)N(NCc3ccc(N(C)C)cc3)CC2c2ccc(C)c(C)c2)cc1 (stereo not shown) [Compound 92, 1-[(4-(Dimethylamino)phenylmethyl)amino]-3-[2-(4-methoxyphenyl)ethyl]-4-(3,4-dimethylphenyl)-2-imidazolidinone] | – | 30 µM | 95% | 0.353 µM | – | 58% | 5.6 µM
4 | C=CS(=O)(=O)NN1CC(c2ccc3c(c2)OCCO3)N(CCc2ccc(OC)cc2)C1=O (stereo not shown) [Compound 33, 1-(Vinylsulfonylamino)-3-[2-(4-methoxyphenyl)ethyl]-4-[(2,3-dihydrobenzo-[1,4]dioxin-6-yl)]-2-imidazolidinone] | – | 35 µM | 85% | – | – | 20% | –
5 | COc1ccc(CCN2C(=O)N(NS(C)(=O)=O)CC2c2ccc(C)cc2)cc1 (stereo not shown) [Compound 20, 1-(Methylsulfonylamino)-3-[(4-methoxyphenyl)ethyl]-4-(4-methylphenyl)-2-imidazolidinone] | – | 30 µM | 73% | – | – | 15% | –
6 | COc1ccc(CCN2C(=O)N(NS(C)(=O)=O)C[C@H]2c2ccc(OC)cc2)cc1 [Compound 106, 1-(Methylsulfonylamino)-3-[2-(4-methoxyphenyl)ethyl]-4-(R)-(4-methoxyphenyl)-2-imidazolidinone] | – | 30 µM | 74% | 0.474 µM | – | 17% | 35 µM

The next lines start with results.

Row | Kv1.5% inhibition @ 1.0 μM (Kv1.5; [3]) | IC50 (L-type calcium channels) | inhibition at 1 µM (Kv1.5; [3]) | IC50 (Kv1.5) | Molecule | HERG % Inhib. @ 10 μM (HERG [1]) | inhibition at 10 µM (HERG [2]) | IC50 (HERG [2])
7 | – | 5.6 µM | 85% | – | COc1ccc(CCN2C(=O)N(NS(=O)(=O)CC(F)(F)F)CC2c2ccc(C(C)(C)C)cc2)cc1 (stereo not shown) [Compound 38, 1-(2,2,2-Trifluoroethanesulfonylamino)-4-[4-(tert-butyl)phenyl]-3-[2-(4-methoxyphenyl)ethyl]-2-imidazolidinone] | – | 56% | –
8 | – | 2 µM | 80% | – | COc1ccc(CCCN2C(=O)N(N)CC2c2ccc(C(C)(C)C)cc2)cc1 (stereo not shown) [Compound 119, 1-amino-4-(4-tert-butylphenyl)-3-[3-(4-methoxyphenyl)propyl]imidazolidin-2-one] | – | 70% | –
9 | – | 3.3 µM | 92% | – | COc1ccc(CCN2C(=O)N(NC(=O)OC(C)(C)C)CC2c2ccc(C)c(C)c2)cc1 (stereo not shown) [Compound 85, {4-(3,4-dimethylphenyl)-3-[2-(4-methoxyphenyl)ethyl]-2-oxo-imidazolidin-1-yl}-carbamic acid tert-butyl ester] | – | 52% | –
10 | – | 15 µM | 90% | – | COc1ccc(CCN2C(=O)N(NS(N)(=O)=O)CC2c2ccc(C)c(C)c2)cc1 (stereo not shown) [Compound 8, 1-(Aminosulfonylamino)-3-[2-(4-methoxyphenyl)ethyl]-4-(3,4-dimethylphenyl)-2-imidazolidinone] | – | 16% | –
11 | – | 4.5 µM | 72% | – | COc1ccc(CCCN2C(=O)N(N)CC2c2ccc(C3CC3)cc2)cc1 (stereo not shown) [Compound 4, 1-Amino-4-(4-cyclopropylphenyl)-3-[3-(4-methoxyphenyl)propyl]-2-imidazolidinone] | – | 53% | –
12 | – | 13 µM | 94% | – | COc1ccc(CCN2C(=O)N(NC(C)=O)CC2Cc2ccc(C(C)(C)C)cc2)cc1 (stereo not shown) [Compound 71, 1-(Acetylamino)-3-[2-(4-methoxyphenyl)ethyl]-4-[(4-tert-butyl)benzyl]-2-imidazolidinone] | – | 30% | –
